Experimental data from patent US11331364B2, “Use for JNK inhibitor molecules for treatment of various diseases” (Xigen Inflammation Ltd., priority 2014, dated 2022).
Square brackets hold non-standard residues; d marks the D form. Peptide text beside a SMILES is read from it.

Experiments:
[1] = tested on: acute CYP-induced cystitis in female Sprague-Dawley rats; assay: Cyclophosphamide-induced acute cystitis, intravenous treatment, visceral pain; assay type: in vivo, rat; settings: 2 mg/kg, i.v.; 24 h after CYP
Procedure: The aim of the present study was to evaluate the effects of intravenous treatment with XG-104 (2 mg/kg) on urinary bladder pain in acute CYP-induced cystitis in female Sprague-Dawley rats. This preclinical model is well-used to test therapeutic approaches for the treatment of interstitial cystitis/painful bladder syndrome (IC/PBS).
Adult female Sprague-Dawley rats (Janvier Labs, Le Genest Saint Isle, France), weighing 215±20 g at the beginning of the experiments, were used. Animals were acclimatized to the laboratory conditions for at least 3 days before the start of any experiments. The animals were allocated to the following four experimental groups (n=10 animals per group):
To induce acute cystitis, a single i.p. injection of CYP at a dose of 150 mg/kg in a final volume of 5 mL/kg was performed. Control rats received physiological saline under the same experimental conditions as CYP (final volume of 5 mL/kg, i.p.).
On the day of each experiment, weight of rats was recorded.
Assessment of referred visceral pain using von Frey filaments: Standardized conditions including fixed time-of-day (a.m. to minimize the potential circadian variations in the behaviours responses) and single-experimenter testing of all animals were applied to minimize variability behavior-based pain testing. Visceral pain including allodynia and hyperalgesia was evaluated by applying to the lower abdomen, close to the urinary bladder, a set of 8 calibrated von Frey filaments of increasing forces (1, 2, 4, 6, 8, 10, 26 and 60 g) with an interstimulus interval of 5 seconds. Prior testing, the abdominal area designed for mechanical stimulation of each animal was shaved. Animals were then placed on a raised wire mesh floor under individual transparent Plexiglas box and acclimatized for at least 30 minutes before starting the von Frey test. Filaments were then applied 1-2 seconds through the mesh floor with enough strength to cause the filament to slightly bend. Each filament was tested 3 times. Care was taken to stimulate different areas within the lower abdominal region in the vicinity of the urinary bladder to avoid desensitization.
The study design differs from that of Example 24 (cf. FIG. 50 A) only in the route of administration (intravenously instead of intravesically) and the doses as specified above. Birefly, acute cystitis was induced by CYP injection (i.p.) at Do (as described above). […]

[2] = tested on: primary mouse cortical neuron cultures; assay: Neuronal apoptosis after Aβ42 stress in WT primary cortical neurons (cleaved PARP, caspase 3); assay type: cell-based
Procedure: To this end, primary mouse cortical neuron cultures were exposed to either 2 μM or 25 μM of β-amyloid 1-42 (Aβ42) for 5 hours to induce Aβ42 cell stress. […] Levels of phosphorylated JNK (pJNK), total JNK (JNK), cleaved PARP and Tubulin (control) were determined. The ratio of pJNK/JNK served as a measure of JNK activity. The level of cleaved protein PARP, which is known to increase during apoptosis, served as a measure of neuronal apoptosis.
(§1) To obtain primary cortical neuronal cultures, E15.5 mice embryos were dissected in PBS (Phosphate Buffered Saline) 6% glucose, on ice. Embryos cortices were minced into small pieces and treated with PBS glucose trypsin (Sigma Aldrich, Saint-Louis, USA) for 20 min at 37° C. Dissociated cortical cells were cultured in Neurobasal media complemented with B27, Glutamax and penicillin-streptomycin (Gibco). Neurons were cultured at 37° C., 5% CO2 on pre-coated with poly-L-lysin (Sigma Aldrich) petri dishes. Neurons were cultured to maturity (7 days) before use.
(§2) To induce […] stress 2 μM of Aβ1-42 (Thermo Fisher Scientific, Mass., USA) were used during 5 h on cortical neurons. Aβ42-1 inversed peptide (Thermo Fisher Scientific) was used as negative control. AP 1-42 and Aβ42-1 were dissolved in pure water and incubated at 37° C. for 48 h before use. […]
(§3) For immunoblot analysis cells were lysed on ice in a lysis buffer containing […] NaPi pH 7.8, […] NaCl, 1% Triton, 0.5% DOC, 0.1% SDS, 10% glycerol, 0.1 μM calyculin A, 1 mM Na3VO4 and 1× of a protease inhibitor cocktail (Sigma Aldrich). Lysates were sonicated and centrifugated 10 min at 15000 g at 4° C. The supernatant protein concentration was determined with the Micro BCA protein assay kit (Thermo Scientific). Thirty micrograms of proteins were resolved on SDS-PAGE and transferred onto nitrocellulose membrane. After blocking with TBS 5% skim milk, the membranes were probed with primary antibodies to JNK full, c-Jun, PKR, eIF2α (Santa Cruz, Danvers, USA), pJNK (Millipore, Billerica, USA), phosphor eIF2a (Thermo Fisher Scientific), PARP and tubulin (Cell Signaling, Danvers, USA). IR Dyes 800 and 700 (Rockland Immunochemical Inc, Gilbertsville, USA) antibodies were used as secondary antibodies. Blots were reveled with Odyssey imaging system (LI-COR Biosciences, Lincoln, USA).
For caspase 3 activity analysis culture cell supernatants containing degenerating and dead neurons, and cell medium were collected in parallel of adhesive neurons lysis. Culture cell supernatants were centrifugated 10 min at 15000 g at 4° C. Pellets were then resuspended in lysis buffer and caspase 3 activity was measured by using the Caspase 3 Assay kit reagents and protocol (Abcam, Cambridge, UK).

JNK = JNK and c-Jun activation after Aβ42 stress in WT primary cortical neurons (immunoblot); assay type: cell-based, mouse
Procedure: To this end, primary mouse cortical neuron cultures were exposed to either 2 μM or 25 μM of β-amyloid 1-42 (Aβ42) for 5 hours to induce Aβ42 cell stress. Neurons were pre-treated with or without 10 μM of the specific inhibitor of JNK, XG-104 (SEQ ID No. 172). Levels of phosphorylated JNK (pJNK), total JNK (JNK), cleaved PARP and Tubulin (control) were determined. The ratio of pJNK/JNK served as a measure of JNK activity. The level of cleaved protein PARP, which is known to increase during apoptosis, served as a measure of neuronal apoptosis.
as §1, §2, §3

[3] = WT neurons, 10 μM, vs Aβ42 treated WT neurons
[4] = WT neurons, 10 μM, 1 h before 2 μM Aβ42, vs stressed WT neurons without peptides

## CC(C)C[C@H](NC(=O)[C@H](CC(N)=O)NC(=O)[C@H](CC(C)C)NC(=O)[C@@H](NC(=O)[C@@H](C)NC(=O)[C@@H]1CCCN1C(=O)[C@H](CCCNC(=N)N)NC(=O)[C@@H](CCCCN)NC(=O)[C@@H]1CCCN1C(=O)[C@H](CCCNC(=N)N)NC(=O)[C@@H](CCCNC(=N)N)NC(=O)[C@H](CCCNC(=N)N)NC(=O)[C@H](CCCNC(=N)N)NC(=O)[C@H](CCC(N)=O)NC(=O)[C@@H](CCCNC(=N)N)NC(=O)[C@H](CCCNC(=N)N)NC(=O)[C@H](CCCCN)NC(=O)[C@H](CCCCN)NC(=O)[C@H](N)CCCNC(=N)N)[C@@H](C)O)C(=O)N[C@H](Cc1ccccc1)C(N)=O [SEQ ID NO: 172, rKKRrQRRrRPkRPaTLNLf] (H-[dR]KKR[dR]QRR[dR]RP[dK]RP[dA]TLNL[dF]-NH2; N-terminus assumed)
[1]
  AUC 1-8 g (allodynia) vs vehicle: significantly decreased
  AUC 8-60 g (hyperalgesia) vs vehicle: significantly reduced
  nociceptive scores vs vehicle: significantly decreased
  nociceptive threshold vs vehicle: significantly increased
[2]; 2 μM Aβ42, 5 μM pre-treatment
  decrease of PARP cleavage: 46.8%
[2]; 2 μM Aβ42, 10 μM pre-treatment
  decrease of PARP cleavage: 80.2%
[2]; 25 μM Aβ42, 5 μM pre-treatment
  decrease of PARP cleavage: 69%
[2]; 25 μM Aβ42, 10 μM pre-treatment
  decrease of PARP cleavage: 80.6%
[2]; Aβ42-induced apoptosis
  efficiency to reduce apoptosis, 10 μM relative to 5 μM: 1.7
[2]; [3]
  decrease of caspase 3 activity: 78%
  decrease of cleaved PARP expression level: 77%
  reduction of cleaved caspase 3 expression level: 61%
JNK; 2 μM Aβ42 5 hours, 5 μM pre-treatment
  decrease of JNK activity (pJNK/JNK): 29.2%
JNK; 2 μM Aβ42 5 hours, 10 μM pre-treatment
  decrease of JNK activity (pJNK/JNK): 60%
JNK; 25 μM Aβ42 5 hours, 5 μM pre-treatment
  decrease of JNK activity (pJNK/JNK): 17.5%
JNK; 25 μM Aβ42 5 hours, 10 μM pre-treatment
  decrease of JNK activity (pJNK/JNK): 59.6%
JNK; WT neurons, 10 μM, 1 h before 2 μM Aβ42
  JNK activation: −60%
JNK; [4]
  c-Jun expression: −62%
  c-Jun phosphorylation: −29%
